The source of these data is patent US20160113932A1, “TREATMENT OF CANCERS USING PI3 KINASE ISOFORM MODULATORS” (INFINITY PHARMACEUTICALS, INC., priority 2013, published 2016).

In this test the test system is serum cytokines/chemokines and matrix metalloproteinases. The test can be described thus: Serum cytokines/chemokines in patients, Milliplex 96-well immuno-assay. It counts as in vivo, human. The settings on record: CLL patients pooled, 8-75 mg BID, C1D8 and/or C2D1. How it is done:
Serum concentrations of a panel of human cytokines/chemokines were determined by Milliplex 96-well immuno-assay as described below.
the blood was allowed to clot for at least 30 minutes before centrifugation for 10 minutes at 1000×g. Serum was removed and either assayed immediately or aliquoted and stored at ≦−20° C. When using frozen samples, it is recommended to thaw the samples completely, mix well by vortexing and centrifuge prior to use in the assay to remove particulates.
1.0 mL deionized water was added to the bottle containing lyophilized Serum Matrix (catalog number MX HSM from MILLIPLEX® Map), and was allowed to be mixed will for at least 10 minutes for complete reconstitution.
200 μL of wash buffer was added into each well of the plate. The plate was sealed and mixed on a plate shaker for 10 minutes at room temperature (20-25° C.). The wash buffer was decanted and the residual amount was removed from all wells by inverting the plate and tapping it smartly onto absorbent towels several times. 25 μL of each standard or control was added into the appropriate wells. […]
The plate was run on Luminex 200™, HTS, FLEXMAP 3D™ or MAGPIX® with xPONENT software. The Median Fluorescent Intensity (MFI) data was saved and analyzed using a 5-parameter logistic or spline curve-fitting method for calculating cytokine/chemokines concentrations in samples. […]

For the compound `C[C@H](Nc1ncnc2[nH]cnc12)c1cc2cccc(Cl)c2c(=O)n1-c1ccccc1` [Compound 292], the “analytes decreased after treatment compared to baseline” value is reported as 10 of 72 analytes.
